Reference: patent US10106501B2, “Nuclear receptor modulators” (AbbVie Inc., priority 2015, dated 2018)

Molecular target: T1, chimeric human RORγ-Gal4 receptor (Homo sapiens, UniProt P51449)
T1 sequence (P51449 269-508 limits assumed): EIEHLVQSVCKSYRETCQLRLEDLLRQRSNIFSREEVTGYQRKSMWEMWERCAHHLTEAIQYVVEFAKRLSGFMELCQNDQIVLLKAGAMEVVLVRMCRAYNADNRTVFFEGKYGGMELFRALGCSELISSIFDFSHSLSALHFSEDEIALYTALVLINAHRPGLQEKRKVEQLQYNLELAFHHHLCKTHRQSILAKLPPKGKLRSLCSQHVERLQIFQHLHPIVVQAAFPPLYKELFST
Assay: transient transactivation assay (RORγ-Gal4 luciferase reporter)
Format: cell-based
Settings: Cos-7 cells transfected with RORγ-Gal4 and 5Gal4 pGL3 TK Luc reporter; overnight incubation; T0901317 at 10^-5 M as reference; read-out: IC50

IC50 [nM]	Structure (SMILES)
1000 to 10000	Cn1c(Cc2c(Cl)ccc(C(=O)N3CCOCC3)c2Cl)cc2cccnc21 [CK, (2,4-dichloro-3-((1-methyl-1H-pyrrolo[2,3-b]pyridin-2-yl)methyl)phenyl)(morpholino)methanone]
< 100	Cc1cn(Cc2c(Cl)ccc(C(=O)N3CCC(CC(=O)O)CC3)c2Cl)c2c(C)cc(C(F)(F)F)cc12 [DI, 2-(1-(2,4-dichloro-3-((3,7-dimethyl-5-(trifluoromethyl)-1H-indol-1-yl)methyl)benzoyl)piperidin-4-yl)acetic acid]
< 100	Cc1cc(C(F)(F)F)cc2c1cc(Cc1c(Cl)ccc(C(=O)N3CCC(C(=O)O)C(C)C3)c1Cl)n2C (stereo not drawn) [Example B-1, 1-(2,4-dichloro-3-((1,4-dimethyl-6-(trifluoromethyl)-1H-indol-2-yl)methyl)benzoyl)-3-methylpiperidine-4-carboxylic acid]
100 to 500	Cc1cc(C#N)cc2c1cc(Cc1c(Cl)ccc(C(=O)N3CCC(N(C)C)CC3)c1Cl)n2C [AA-6]
< 100	Cc1cc(C(F)(F)F)cn2c(C)c(Cc3c(Cl)ccc(C(=O)N4CCC(C5COC5)CC4)c3Cl)nc12 [CT-8]
< 100	O=C(O)CC1CCN(C(=O)c2ccc(Cl)c(Cn3ccc4c(C(F)(F)F)cccc43)c2Cl)CC1 [EI-7]
100 to 500	CCOC(=O)CN1CCN(C(=O)c2ccc(Cl)c(Cc3cc4c(C)cc(C(F)(F)F)cc4n3C)c2Cl)CC1 [Example AV, ethyl 2-(4-(2,4-dichloro-3-((1,4-dimethyl-6-(trifluoromethyl)-1H-indol-2-yl)methyl)benzoyl)piperazin-1-yl)acetate]
< 100	Cc1cc(C(F)(F)F)cc2c1cc(Cc1c(Cl)ccc(C(=O)N3CCC(C(C)(C)C(=O)O)CC3)c1Cl)n2C [Example B-23]
100 to 500	Cc1cc(C(F)(F)F)cc2c1cc(Cc1c(Cl)ccc(C(=O)N3CCC(C)(C(=O)O)CC3)c1Cl)n2C [Example B-13]
100 to 500	Cc1cc(C(F)(F)F)cc2c1nc(Cc1c(Cl)ccc(CN3CCC(O)CC3)c1Cl)n2C [BW-4]
< 100	Cc1cc(C(F)(F)F)cc2cn(Cc3c(Cl)ccc(C(=O)N4CCC(CC(=O)O)CC4)c3Cl)nc12 [ED, 2-(1-(2,4-dichloro-3-((7-methyl-5-(trifluoromethyl)-2H-indazol-2-yl)methyl)benzoyl)piperidin-4-yl)acetic acid]
< 100	Cn1c(C(=O)c2c(Cl)ccc(C(=O)N3CCC(CC(=O)O)CC3)c2Cl)cc2ccc(OC(F)(F)F)cc21 [Example GI, 2-(1-(2,4-dichloro-3-(1-methyl-6-(trifluoromethoxy)-1H-indole-2-carbonyl)benzoyl)piperidin-4-yl)acetic acid]
100 to 500	COCC1CCN(C(=O)c2ccc(Cl)c(Cc3nc4c(C)cc(C(F)(F)F)cc4n3C)c2Cl)CC1 [BJ-13]
500 to 1000	Cc1cc(C#N)cc2c1cc(Cc1c(Cl)ccc(C(=O)NC3CCOCC3)c1Cl)n2C [AA-23]
< 100	Cc1cc(C(=O)N(C)C)cc2c1cc(Cc1c(Cl)ccc(C(=O)N3CCOCC3)c1Cl)n2C [Example FO, 2-[[2,6-dichloro-3-(morpholine-4-carbonyl)phenyl]methyl]-N,N,1,4-tetramethyl-indole-6-carboxamide]
100 to 500	Cc1cc(C(F)(F)F)cc2c1cc(Cc1c(Cl)ccc(C(=O)N3C[C@@]4(C(=O)O)CC[C@@H]3C4)c1Cl)n2C [Example B-16]
100 to 500	Cc1cc(C(F)(F)F)nn2c(C)c(Cc3c(Cl)ccc(C(=O)N4CCN(S(C)(=O)=O)[C@H](C)C4)c3Cl)nc12 [CZ-3]
< 100	Cc1nn(C(=O)c2c(Cl)ccc(C(=O)N3CCC(CC(=O)O)CC3)c2Cl)c2c(C)cc(C(F)(F)F)cc12 [EA, 2-(1-(2,4-dichloro-3-(3,7-dimethyl-5-(trifluoromethyl)-1H-indazole-1-carbonyl)benzoyl)piperidin-4-yl)acetic acid]
500 to 1000	Cc1cc(C#N)cc2c1cc(C(=O)c1c(Cl)ccc(C(=O)N3CC(O)C3)c1Cl)n2C [AN-1]
500 to 1000	CCN(CCO)Cc1ccc(Cl)c(Cc2nc3c(C)cc(C(F)(F)F)cc3n2C)c1Cl [BW-18]
100 to 500	Cc1cc(C(F)(F)F)cc2c1nc(Cc1c(Cl)ccc(C(=O)N3CCC(CC(C)O)CC3)c1Cl)n2C (stereo not drawn) [BJ-19]
100 to 500	COCCC1CCN(Cc2ccc(Cl)c(Cc3nc4c(C)cc(C(F)(F)F)cc4n3C)c2Cl)CC1 [Example BW, 2-[[2,6-dichloro-3-[[4-(2-methoxyethyl)-1-piperidyl]methyl]phenyl]methyl]-1,4-dimethyl-6-(trifluoromethyl)benzimidazole]
1000 to 10000	Cc1cc(C#N)cc2c1cc(Cc1c(Cl)ccc(C(=O)N3CCC(OCC(=O)O)CC3)c1Cl)n2C [Example AM, 2-((1-(2,4-dichloro-3-((6-cyano-1,4-dimethyl-1H-indol-2-yl)methyl)benzoyl)piperidin-4-yl)oxy)acetic acid]

IC50 [nM]	Structure (SMILES)
500 to 1000	Cc1cc(C(F)(F)F)cc2c1nc(Cc1c(Cl)ccc(CN3CCC(CC(C)(C)O)CC3)c1Cl)n2C [BW-12]
1000 to 10000	Cc1cc(C#N)nn2c(C)c(Cc3c(Cl)ccc(C(=O)N4CCOCC4)c3Cl)nc12 [DA, 2-(2,6-dichloro-3-(morpholine-4-carbonyl)benzyl)-3,8-dimethylimidazo[1,2-b]pyridazine-6-carbonitrile]
500 to 1000	Cc1cc(C#N)cc2c1cc(Cc1c(Cl)ccc(O[C@H]3CC[C@@H](C(=O)O)C3)c1Cl)n2C (relative stereo) [Example AG1, cis-3-(2,4-dichloro-3-((6-cyano-1,4-dimethyl-1H-indol-2-yl)methyl)phenoxy)cyclopentanecarboxylic acid]
< 100	Cc1cc(C(F)(F)F)cc2c1cc(C(=O)c1c(Cl)ccc(C(=O)N3CCC(C4COC4)CC3)c1Cl)n2C [AP-6]
500 to 1000	Cc1cc(C#N)cc2c1cc(Cc1c(Cl)ccc(O[C@H]3C[C@H](C(=O)O)C3)c1Cl)n2C [Example AH, trans-3-(2,4-dichloro-3-((6-cyano-1,4-dimethyl-1H-indol-2-yl)methyl)phenoxy)cyclobutanecarboxylic acid]
< 100	Cc1cc(OC(F)(F)F)cc2ccn(C(=O)c3c(Cl)ccc(C(=O)N4CCC(CC(=O)O)CC4)c3Cl)c12 [EL, 2-(1-(2,4-dichloro-3-(7-methyl-5-(trifluoromethoxy)-1H-indole-1-carbonyl)benzoyl)piperidin-4-yl)acetic acid]
100 to 500	COC1CN(C(=O)c2ccc(Cl)c(Cc3cc4c(C)cc(C#N)cc4n3C)c2Cl)C1 [AA-21]
100 to 500	Cc1cc(C(F)(F)F)cc2c1cc(C(=O)c1c(Cl)ccc(C(=O)N3C[C@@H]4[C@H](C3)[C@H]4C(=O)O)c1Cl)n2C [AQ-2]
< 100	Cc1cc(C(F)(F)F)cc2c(C)n(Cc3c(Cl)ccc(C(=O)N4CCC(CC(=O)O)CC4)c3Cl)nc12 [DG, 2-(1-(2,4-dichloro-3-((3,7-dimethyl-5-(trifluoromethyl)-2H-indazol-2-yl)methyl)benzoyl)piperidin-4-yl)acetic acid]
< 100	Cc1cc(OC(F)(F)F)cc2c1c(Cc1c(Cl)ccc(C(=O)N3CCC(C(=O)O)CC3)c1Cl)cn2C [DU, 1-[2,4-dichloro-3-[[1,4-dimethyl-6-(trifluoromethoxy)-1H-indol-3-yl]methyl]benzoyl]piperidine-4-carboxylic acid]
< 100	Cc1c(C#N)ccc2c1cc(Cc1c(Cl)ccc(C(=O)N3CCC(CC(=O)O)CC3)c1Cl)n2C [EY, 2-(1-(2,4-dichloro-3-((5-cyano-1,4-dimethyl-1H-indol-2-yl)methyl)benzoyl)piperidin-4-yl)acetic acid]
< 100	O=C(O)CC1CCN(C(=O)c2ccc(Cl)c(Cn3ccc4cc(C(F)(F)F)cc(Cl)c43)c2Cl)CC1 [EI-5]
< 100	Cc1cc(C(F)(F)F)cc2c1cc(Cc1c(Cl)ccc(C(=O)N3CCC(CCC(=O)O)CC3)c1Cl)n2C [Example B-24]
< 100	Cc1cc(Br)cc2c1cc(Cc1c(Cl)ccc(C(=O)N3CCOCC3)c1Cl)n2C [Example AX, (3-((6-bromo-1,4-dimethyl-1H-indol-2-yl)methyl)-2,4-dichlorophenyl)(morpholino)methanone]
100 to 500	Cc1cc(C#N)cc2c1cc(Cc1c(Cl)ccc(C(=O)N3CCCN(CCO)CC3)c1Cl)n2C [AA-13]
100 to 500	Cc1ccc(C(=O)N2CCOCC2)c(C)c1C(O)c1cc2c(C)cc(C(F)(F)F)cc2n1C (stereo not drawn) [K, (3-((1,4-dimethyl-6-(trifluoromethyl)-1H-indol-2-yl)(hydroxy)methyl)-2,4-dimethylphenyl)(morpholino)methanone]
< 100	Cc1cc(C(F)(F)F)cc2c1cc(Cc1c(Cl)cnc(C(=O)N3CCC(CC(=O)O)CC3)c1Cl)n2C [Example FH, 2-(1-(3,5-dichloro-4-((1,4-dimethyl-6-(trifluoromethyl)-1H-indol-2-yl)methyl)picolinoyl)piperidin-4-yl)acetic acid]
< 100	Cc1cc(C(F)(F)F)cc2c1cc(Cc1c(Cl)ccc(C(=O)N3C[C@@H]4C(C(=O)O)[C@@H]4C3)c1Cl)n2C (stereo partly drawn) [Example B-8]
100 to 500	Cc1cc(C#N)cc2c1cc(Cc1c(Cl)ccc(C(=O)N3CC4(COC4)C3)c1Cl)n2C [AA-26]
< 100	Cc1cc(OC(F)(F)F)cc2c1cc(Cc1c(Cl)ccc(C(=O)N3CCOCC3)c1Cl)n2C [DP-1, (2,4-dichloro-3-((1,4-dimethyl-6-(trifluoromethoxy)-1H-indol-2-yl)methyl)phenyl)(morpholino)methanone]
100 to 500	Cc1cc(C(F)(F)F)cc2c1cc(Cc1c(Cl)ccc(C(=O)N3CCC(F)(C(=O)O)CC3)c1Cl)n2C [Example B-14]
100 to 500	Cc1cc(C(F)(F)F)nc2c1cc(Cc1c(Cl)ncc(C(=O)N3CCN(S(C)(=O)=O)CC3)c1Cl)n2C [Example GE, (4,6-dichloro-5-((1,4-dimethyl-6-(trifluoromethyl)-1H-pyrrolo[2,3-b]pyridin-2-yl)methyl)pyridin-3-yl)(4-(methylsulfonyl)piperazin-1-yl)methanone]
